# Test results as given in US9914730B2, “Azaquinazoline inhibitors of Atypical protein Kinase C” (Ignyta, Inc., priority 2012, dated 2018).
# Molecular target: T1, full-length human PKCι (Homo sapiens, UniProt P41743)
# T1 construct: Recombinant, full-length human PKCι expressed in Sf21 insect cells is also commercially available; purchased; host or cells: Sf21 insect cells
# T1 sequence (P41743 1-596): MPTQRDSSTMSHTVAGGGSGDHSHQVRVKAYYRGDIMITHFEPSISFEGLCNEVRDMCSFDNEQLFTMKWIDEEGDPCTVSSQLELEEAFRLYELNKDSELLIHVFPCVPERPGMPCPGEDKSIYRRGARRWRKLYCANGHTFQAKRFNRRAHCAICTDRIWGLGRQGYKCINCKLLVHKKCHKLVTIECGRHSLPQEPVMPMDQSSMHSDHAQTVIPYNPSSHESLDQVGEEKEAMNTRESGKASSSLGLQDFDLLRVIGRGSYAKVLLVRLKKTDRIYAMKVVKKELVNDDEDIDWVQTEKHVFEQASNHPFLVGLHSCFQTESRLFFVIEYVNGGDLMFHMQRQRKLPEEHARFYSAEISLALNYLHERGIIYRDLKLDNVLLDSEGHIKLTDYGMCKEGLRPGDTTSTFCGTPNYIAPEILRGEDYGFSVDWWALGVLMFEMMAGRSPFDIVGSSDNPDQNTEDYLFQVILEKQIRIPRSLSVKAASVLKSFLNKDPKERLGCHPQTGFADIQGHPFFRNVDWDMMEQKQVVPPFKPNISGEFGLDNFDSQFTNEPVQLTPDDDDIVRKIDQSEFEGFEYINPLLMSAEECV
# Test: PKCι IC50 IMAP assay, full-length PKCι at 150 μM ATP
# Type: biochemical
# Conditions: read-out: IC50 in IMAP assay against full length PKCi at 150 μM ATP
# Procedure, shortened: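 IC50 from IMAP FP (ex 485/em 530 nm) after 60 min room-temperature reaction in pH 7.5 tris buffer with 9 mM MgCl2 and 0.9 mM DTT. Enzyme: full-length Sf21-expressed PKCι (~15 pM); ATP 150 μM, five times KM^APP; FAM-labelled peptide 100 nM; DMSO 4%.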
row,IC50,Structure (SMILES)
1,< 100 nM,"FC(F)(F)c1ccc(Nc2cc(-c3nc(N4CCNCC4)c4c(C5CC5)cncc4n3)ccn2)nc1 [Example 827, [4-(5-Cyclopropyl-4-piperazin-1-yl-pyrido[3,4-d]pyrimidin-2-yl)-pyridin-2-yl]-(5-trifluoromethyl-pyridin-2-yl)-amine]"
2,< 100 nM,"Fc1cccc2nc(Nc3cc(-c4nc(N5CCNCC5)c5c(C6CC6)cncc5n4)ccn3)nn12 [Example 2041, [4-(5-Cyclopropyl-4-piperazin-1-yl-pyrido[3,4-d]pyrimidin-2-yl)-pyridin-2-yl]-(5-fluoro-[1,2,4]triazolo[1,5-a]pyridin-2-yl)-amine]"
3,< 100 nM,"CN(c1nc(-c2ccnc3[nH]c(C(F)(F)F)cc23)nc2cncc(C3CC3)c12)[C@@H]1CCNC1 [Example 2088, [5-Cyclopropyl-2-(2-trifluoromethyl-1H-pyrrolo[2,3-b]pyridin-4-yl)-pyrido[3,4-d]pyrimidin-4-yl]-methyl-(R)-pyrrolidin-3-yl-amine]"
4,< 100 nM,"NCC1CCN(c2nc(-c3ccnc(Nc4c(F)cccc4F)c3)nc3cncc(C4CC4)c23)CC1 [Example 696, {4-[4-(4-Aminomethyl-piperidin-1-yl)-5-cyclopropyl-pyrido[3,4-d]pyrimidin-2-yl]-pyridin-2-yl}-(2,6-difluoro-phenyl)-amine]"
5,< 100 nM,"c1ccc(C[C@H]2CN(c3nc(-c4ccnc5[nH]ccc45)nc4cncc(C5CC5)c34)CCN2)cc1 [Example 1219, 4-((S)-3-Benzyl-piperazin-1-yl)-5-cyclopropyl-2-(1H-pyrrolo[2,3-b]pyridin-4-yl)-pyrido[3,4-d]pyrimidine]"
6,< 100 nM,"COc1cncc2nc(-c3ccnc(Nc4cccnc4)c3)nc(N3CCNCC3)c12 [Example 378, [4-(5-Methoxy-4-piperazin-1-yl-pyrido[3,4-d]pyrimidin-2-yl)-pyridin-2-yl]-pyridin-3-yl-amine]"
7,1000 to 10000 nM,"c1ccc(C[C@@H]2CNCCN2c2nc(-c3ccncc3)nc3cnccc23)cc1 [Example 29, (2R)-2-benzyl-1-[2-(pyridin-4-yl)-pyrido[3,4-d]-pyrimidin-4-yl]-piperazine]"
8,10000 to 40000 nM,"Oc1nc(-c2ccnc(Nc3cnn(CC4CCNCC4)c3)c2)nc2cnccc12 [Example 499, 2-[2-(1-Piperidin-4-ylmethyl-1H-pyrazol-4-ylamino)-pyridin-4-yl]-pyrido[3,4-d]pyrimidin-4-ol]"
9,1000 to 10000 nM,"Cn1ccc(Nc2cc(-c3nc(N4CCNCC4)c4c(C5CC5)cncc4n3)ccn2)n1 [Example 600, [4-(5-Cyclopropyl-4-piperazin-1-yl-pyrido[3,4-d]pyrimidin-2-yl)-pyridin-2-yl]-(l-methyl-1H-pyrazol-3-yl)-amine]"
10,100 to 1000 nM,"Fc1ccccc1Nc1cc(-c2nc(N3CCNCC3)c3c(Cl)cncc3n2)ccn1 [Example 247, [4-(5-Chloro-4-piperazin-1-yl-pyrido[3,4-d]pyrimidin-2-yl)-pyridin-2-yl]-(2-fluoro-phenyl)-amine]"
11,1000 to 10000 nM,"COc1cncc2nc(-c3ccnc(Nc4ccccc4)c3)nc(N3CCC[C@@H](O)C3)c12 [Example 428, (R)-1-[5-Methoxy-2-(2-phenylamino-pyridin-4-yl)-pyrido[3,4-d]pyrimidin-4-yl]-piperidin-3-ol]"

# Further lines, the compound ahead of its results:
row,Structure (SMILES),IC50
1,"COc1cncc2nc(-c3ccnc(Nc4ccc(C5CCOCC5)cc4)c3)nc(N3CCNCC3)c12 [Example 362, [4-(5-Methoxy-4-piperazin-1-yl-pyrido[3,4-d]pyrimidin-2-yl)-pyridin-2-yl]-[4-(tetrahydro-pyran-4-yl)-phenyl]-amine]",< 100 nM
2,"c1ccc2c(c1)CCC(Nc1cc(-c3nc(N4CCNCC4)c4c(C5CC5)cncc4n3)ccn1)C2 (stereo not drawn) [Example 2137, [4-(5-Cyclopropyl-4-piperazin-1-yl-pyrido[3,4-d]pyrimidin-2-yl)-pyridin-2-yl]-(1,2,3,4-tetrahydro-naphthalen-2-yl)-amine]",< 100 nM
3,"COc1cncc2nc(-c3ccnc(Nc4ccc(F)cc4F)c3)nc(N3CCNCC3)c12 [Example 453, (2,4-Difluoro-phenyl)-[4-(5-methoxy-4-piperazin-1-yl-pyrido[3,4-d]pyrimidin-2-yl)-pyridin-2-yl]-amine]",< 100 nM
4,"COc1cncc2nc(-c3ccnc(NC(=O)c4cccs4)c3)nc(N[C@@H]3CCNC3)c12 [Example 240, Thiophene-2-carboxylic acid {4-[5-methoxy-4-((R)-pyrrolidin-3-ylamino)-pyrido[3,4-d]pyrimidin-2-yl]-pyridin-2-yl}-amide]",< 100 nM
5,"c1cc(Nc2cc(-c3nc(N4CCNCC4)c4c(C5CC5)cncc4n3)ccn2)cc(N2CCOCC2)c1 [Example 2023, [4-(5-Cyclopropyl-4-piperazin-1-yl-pyrido[3,4-d]pyrimidin-2-yl)-pyridin-2-yl]-(3-morpholin-4-yl-phenyl)-amine]",< 100 nM
6,"COc1cncc2nc(-c3ccncc3)nc(N3CCN(CC#N)CC3)c12 [Example 87, 2-{4-[5-methoxy-2-(pyridin-4-yl)pyrido[3,4-d]pyrimidin-4-yl]piperazin-1-yl}acetonitrile]",10000 to 40000 nM
7,"CC(C)(c1ccccc1)c1cc2c(-c3nc(N4CCNCC4)c4c(C5CC5)cncc4n3)ccnc2[nH]1 [Example 2086, 5-Cyclopropyl-2-[2-(1-methyl-1-phenyl-ethyl)-1H-pyrrolo[2,3-b]pyridin-4-yl]-4-piperazin-1-yl-pyrido[3,4-d]pyrimidine]",< 100 nM
8,"COc1cncc2nc(-c3ccnc(Nc4cccc(C)n4)c3)nc(N3CCNCC3)c12 [Example 415, [4-(5-Methoxy-4-piperazin-1-yl-pyrido[3,4-d]pyrimidin-2-yl)-pyridin-2-yl]-(6-methyl-pyridin-2-yl)-amine]",< 100 nM
9,"Fc1cccc(F)c1-n1cc(Nc2cc(-c3nc(N4CCNCC4)c4c(C5CC5)cncc4n3)ccn2)cn1 [Example 818, [4-(5-Cyclopropyl-4-piperazin-1-yl-pyrido[3,4-d]pyrimidin-2-yl)-pyridin-2-yl]-[1-(2,6-difluoro-phenyl)-1H-pyrazol-4-yl]-amine]",< 100 nM
10,"CC(C)(c1cc2c(-c3nc(N4CCNCC4)c4c(C5CCC5)cncc4n3)ccnc2[nH]1)C(F)(F)F [Example 2182, 5-Cyclobutyl-4-piperazin-1-yl-2-[2-(2,2,2-trifluoro-1,1-dimethyl-ethyl)-1H-pyrrolo[2,3-b]pyridin-4-yl]-pyrido[3,4-d]pyrimidine]",< 100 nM
11,"CCN1CCP(=O)(c2ccc(Nc3cc(-c4nc(N5CCNCC5)c5c(C6CC6)cncc5n4)ccn3)c(OC)c2)CC1 [Example 625, [4-(5-Cyclopropyl-4-piperazin-1-yl-pyrido[3,4-d]pyrimidin-2-yl)-pyridin-2-yl]-[4-(1-ethyl-4-oxo-4λ^5-[1,4]azaphos-phinan-4-yl)-2-methoxy-phenyl]-amine]",100 to 1000 nM
12,"c1cc(-c2nc(N3CCNCC3)c3c(C4CC4)cncc3n2)cc(Nc2nc3ccc(C4CC4)cn3n2)n1 [Example 2012, [4-(5-Cyclopropyl-4-piperazin-1-yl-pyrido[3,4-d]pyrimidin-2-yl)-pyridin-2-yl]-(6-cyclopropyl-[1,2,4]triazolo[1,5-a]pyridin-2-yl)-amine]",< 100 nM
13,"C[C@@H](N)CNc1nc(-c2ccncc2)nc2cnccc12 [Example 4, N-[(2R)-2-aminopropyl)-2-(pyridin-4-yl)pyrido[3,4-d]-pyrimidin-4-amine]",1000 to 10000 nM
14,"Cc1ccc(Nc2cc(-c3nc(N4CCNCC4)c4c(C5CC5)cncc4n3)ccn2)c(C)c1 [Example 573, [4-(5-Cyclopropyl-4-piperazin-1-yl-pyrido[3,4-d]pyrimidin-2-yl)-pyridin-2-yl]-(2,4-dimethyl-phenyl)-amine]",< 100 nM
15,"CN(C)CCN(C)c1nc(-c2ccnc(Nc3c(F)cccc3F)c2)nc2cncc(C3CC3)c12 [Example 797, N-{5-Cyclopropyl-2-[2-(2,6-difluoro-phenylamino)-pyridin-4-yl]-pyrido[3,4-d]pyrimidin-4-yl}-N,N′,N′-trimethyl-ethane-1,2-diamine]",100 to 1000 nM
16,"COc1cncc2nc(N3CCOCC3)nc(N3CCNCC3)c12 [Example 1003, 5-Methoxy-2-morpholin-4-yl-4-piperazin-1-yl-pyrido[3,4-d]pyrimidine]",100 to 1000 nM
17,"Cn1c(C(F)(F)F)cc2c(-c3nc(N[C@@H]4CCNC4)c4c(C5CC5)cncc4n3)ccnc21 [Example 2077, [5-Cyclopropyl-2-(1-methyl-2-trifluoromethyl-1H-pyrrolo[2,3-b]pyridin-4-yl)-pyrido[3,4-d]pyrimidin-4-yl]-(R)-pyrrolidin-3-yl-amine]",10000 to 40000 nM
18,"C[C@@H](Nc1cc(-c2nc(N3CCNCC3)c3c(C4CC4)cncc3n2)ccn1)c1nc(F)ccc1F [Example 802, [4-(5-Cyclopropyl-4-piperazin-1-yl-pyrido[3,4-d]pyrimidin-2-yl)-pyridin-2-yl]-[(R)-1-(3,6-difluoro-pyridin-2-yl)-ethyl]-amine]",< 100 nM
19,"N[C@H](CNc1nc(N2CCOCC2)nc2cnccc12)Cc1ccccc1 [Example 1014, (S)—N^1-(2-Morpholin-4-yl-pyrido[3,4-d]pyrimidin-4-yl)-3-phenyl-propane-1,2-diamine]",100 to 1000 nM
